Data reported in US9079913B2, “Spiro-oxindole MDM2 antagonists” (The Regents of the University of Michigan, priority 2009, dated 2015).
Like-named read-outs stand apart in the source and are kept apart here.

How the values were obtained:
[1] = Pharmacokinetic studies in rats; format: in vivo, rat; details: for oral bioavailability / oral pharmacokinetics in rats (in words): oral dosing; for bioavailability / half-life / AUC(0-t) / Cmax: rat, plasma, male rats, oral dose 15 mg/kg; for AUC(0-t): read-out: AUC(0-t); for Cmax: read-out: Cmax
Procedure: Pharmacokinetic studies on MDM2 inhibitors were carried out in rat. For comparison, the MDM2 inhibitor, AT-219, was also studied.

[2] = tested on: Isogenic HCT-116 colon cancer cell lines; assay: cells; format: cell-based; details: Homo sapiens, cell growth;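 note: cells grown in 96-well plates in McCoy's 5A medium with 10% FBS, exposed to compound for 4 days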
Procedure: Cells were seeded in 96-well flat bottom cell culture plates at a density of 2−3×10^3 cells/well with compounds and incubated for 4 days.

[3] = molecular target: recombinant human His-tagged MDM2 protein (residues 1-118) (Homo sapiens (Human), UniProt Q00987); assay: Fluorescence-polarization MDM2 binding assay; details: Table 19A; FP binding assay; read-out: MDM2 IC50;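 note: fluorescence polarization read after three hours of incubation in potassium phosphate buffer containing bovine gamma globulin and Triton X-100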
[4] = tested on: cancer cell lines with wild-type p53 / mutated or deleted p53 (ATCC); assay: Cell growth assay (WST-8), other cancer cell lines; format: cell-based; details: Homo sapiens
[5] = In vitro microsomal stability, human; format: in vitro ADME; details: for Microsomal stability, % remaining: Human Microsome, same batch; for half-life: human, liver microsomes, human liver microsomes with NADPH
[6] = In vitro microsomal stability, rat; format: in vitro ADME; details: for Microsomal stability, % remaining: Rat Microsome, same batch; for microsomal stability (in words) / % of compound remaining when incubated in rat liver microsomes with NADPH: rat liver microsomes; for half-life: rat, liver microsomes, rat liver microsomes with NADPH
[7] = HCT-116, read-out: HCT-116 (p53-/-) IC50, Table 19A, HCT-116 p53-/-
[8] = HCT-116, read-out: HCT-116 (p53 wild-type) IC50, Table 19A, HCT-116 p53 wild-type
[9] = LNCaP, Table 19A, LNCAP cells, p53 wild-type, cell growth, read-out: LNCAP (p53 wild-type) IC50
[10] = PC-3, Table 19A, PC-3 cells, deleted p53, cell growth, read-out: PC-3 (deleted p53) IC50

recombinant human His-tagged MDM2 protein (residues 1-118), sequence (Q00987 1-118): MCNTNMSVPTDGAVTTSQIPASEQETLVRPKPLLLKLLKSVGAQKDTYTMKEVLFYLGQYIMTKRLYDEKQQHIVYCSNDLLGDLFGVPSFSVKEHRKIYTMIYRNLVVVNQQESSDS

CC(C)(C)C[C@H]1N[C@@H](C(=O)NCC[C@H](O)CN2CC[C@@H](O)C2)[C@H](c2cccc(Cl)c2)[C@@]12C(=O)Nc1cc(Cl)c(F)cc12 [MI-519-29]
oral bioavailability / oral pharmacokinetics in rats (in words) [1]: much inferior oral pharmacokinetic parameters
bioavailability [1]: < 1%
half-life [1]: 414 ± 450 min
AUC(0-t) [1]: 28 ± 15 µg·h/mL
Cmax [1]: 51 ± 30 ng/mL
IC50 [2, 7]: > 10 µM
IC50 [2, 8]: < 5 µM
IC50 [3]: < 1000 nM
IC50 [4, 9]: < 5 µM
IC50 [4, 10]: > 10 µM
Microsomal stability, % remaining ([5]; 0 min): 100.00%
Microsomal stability, % remaining ([5]; 5 min): 70.67%
Microsomal stability, % remaining ([5]; 10 min): 56.31%
Microsomal stability, % remaining ([5]; 15 min): 49.52%
Microsomal stability, % remaining ([5]; 30 min): 45.48%
Microsomal stability, % remaining ([5]; 45 min): 40.08%
Microsomal stability, % remaining ([5]; 60 min): 35.28%
% of compound remaining when incubated in human liver microsomes with NADPH ([5]; human liver microsomes, 0 min): 100.00%
% of compound remaining when incubated in human liver microsomes with NADPH ([5]; human liver microsomes, 5 min): 70.67%
% of compound remaining when incubated in human liver microsomes with NADPH ([5]; human liver microsomes, 10 min): 56.31%
% of compound remaining when incubated in human liver microsomes with NADPH ([5]; human liver microsomes, 15 min): 49.52%
% of compound remaining when incubated in human liver microsomes with NADPH ([5]; human liver microsomes, 30 min): 45.48%
% of compound remaining when incubated in human liver microsomes with NADPH ([5]; human liver microsomes, 45 min): 40.08%
% of compound remaining when incubated in human liver microsomes with NADPH ([5]; human liver microsomes, 60 min): 35.28%
half-life [5]: 12.1 min
Microsomal stability, % remaining ([6]; 0 min): 100.00%
Microsomal stability, % remaining ([6]; 5 min): 93.42%
Microsomal stability, % remaining ([6]; 10 min): 84.91%
Microsomal stability, % remaining ([6]; 15 min): 82.81%
Microsomal stability, % remaining ([6]; 30 min): 70.75%
Microsomal stability, % remaining ([6]; 45 min): 71.89%
Microsomal stability, % remaining ([6]; 60 min): 69.91%
microsomal stability (in words) [6]: improved stability over MI-219
% of compound remaining when incubated in rat liver microsomes with NADPH ([6]; 0 min): 100.00%
% of compound remaining when incubated in rat liver microsomes with NADPH ([6]; 5 min): 93.42%
% of compound remaining when incubated in rat liver microsomes with NADPH ([6]; 10 min): 84.91%
% of compound remaining when incubated in rat liver microsomes with NADPH ([6]; 15 min): 82.81%
% of compound remaining when incubated in rat liver microsomes with NADPH ([6]; 30 min): 70.75%
% of compound remaining when incubated in rat liver microsomes with NADPH ([6]; 45 min): 71.89%
% of compound remaining when incubated in rat liver microsomes with NADPH ([6]; 60 min): 69.91%
half-life [6]: 61.3 min

CC(C)(C)C[C@H]1N[C@@H](C(=O)NCCC(C)(O)CO)[C@H](c2cccc(Cl)c2)[C@@]12C(=O)Nc1cc(Cl)c(F)cc12 (some centres unmarked) [MI-758]
oral bioavailability / oral pharmacokinetics in rats (in words) [1]: good oral bioavailability and pharmacokinetic parameters
bioavailability [1]: 38%
half-life [1]: 114 ± 6 min
AUC(0-t) [1]: 4280 ± 2690 µg·h/mL
Cmax [1]: 1490 ± 1120 ng/mL
IC50 [2, 7]: 19.1 ± 3.6 µM
IC50 [2, 8]: 0.6 µM
IC50 [3]: < 1000 nM
IC50 [4, 9]: 0.6 µM
IC50 [4, 10]: 18.7 ± 7.1 µM
Microsomal stability, % remaining ([5]; 0 min): 100.00%
Microsomal stability, % remaining ([5]; 5 min): 95.88%
Microsomal stability, % remaining ([5]; 10 min): 89.21%
Microsomal stability, % remaining ([5]; 15 min): 81.61%
Microsomal stability, % remaining ([5]; 30 min): 65.20%
Microsomal stability, % remaining ([5]; 45 min): 54.52%
Microsomal stability, % remaining ([5]; 60 min): 51.45%
microsomal stability (in words) ([5]; human liver microsomes): improved stability over MI-219
% of compound remaining when incubated in human liver microsomes with NADPH ([5]; human liver microsomes, 0 min): 100.00%
% of compound remaining when incubated in human liver microsomes with NADPH ([5]; human liver microsomes, 5 min): 95.88%
% of compound remaining when incubated in human liver microsomes with NADPH ([5]; human liver microsomes, 10 min): 89.21%
% of compound remaining when incubated in human liver microsomes with NADPH ([5]; human liver microsomes, 15 min): 81.61%
% of compound remaining when incubated in human liver microsomes with NADPH ([5]; human liver microsomes, 30 min): 65.20%
% of compound remaining when incubated in human liver microsomes with NADPH ([5]; human liver microsomes, 45 min): 54.52%
% of compound remaining when incubated in human liver microsomes with NADPH ([5]; human liver microsomes, 60 min): 51.45%
half-life [5]: 49.5 min
Microsomal stability, % remaining ([6]; 0 min): 100.00%
Microsomal stability, % remaining ([6]; 5 min): 96.52%
Microsomal stability, % remaining ([6]; 10 min): 92.93%
Microsomal stability, % remaining ([6]; 15 min): 82.50%
Microsomal stability, % remaining ([6]; 30 min): 73.32%
Microsomal stability, % remaining ([6]; 45 min): 69.33%
Microsomal stability, % remaining ([6]; 60 min): 66.93%
microsomal stability (in words) [6]: improved stability over MI-219
% of compound remaining when incubated in rat liver microsomes with NADPH ([6]; 0 min): 100.00%
% of compound remaining when incubated in rat liver microsomes with NADPH ([6]; 5 min): 96.52%
% of compound remaining when incubated in rat liver microsomes with NADPH ([6]; 10 min): 92.93%
% of compound remaining when incubated in rat liver microsomes with NADPH ([6]; 15 min): 82.50%
% of compound remaining when incubated in rat liver microsomes with NADPH ([6]; 30 min): 73.32%
% of compound remaining when incubated in rat liver microsomes with NADPH ([6]; 45 min): 69.33%
% of compound remaining when incubated in rat liver microsomes with NADPH ([6]; 60 min): 66.93%
half-life [6]: 79.8 min
